Consider 23 compounds from patent publication US20090118135A1, “METHODS AND COMPOUNDS FOR REGULATING APOPTOSIS” (The Burnham Institute, priority 2007, published 2009).

Structures are written as SMILES.

This experiment addresses T1, GST-Bfl-1 (Homo sapiens, UniProt Q16548).
T1 construct: lacking their C-terminal transmembrane domains (about the last 20 amino acids) (“ΔTM”); made in house; host or cells: XL-1 Blue E. coli, pGEX 4T-1
T1 sequence (Q16548 1-155 limits assumed): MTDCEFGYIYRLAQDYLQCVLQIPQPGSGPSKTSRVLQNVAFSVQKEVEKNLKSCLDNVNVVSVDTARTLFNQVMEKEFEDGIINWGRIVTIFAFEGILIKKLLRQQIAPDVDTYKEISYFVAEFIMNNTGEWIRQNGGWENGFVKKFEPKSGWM
As to the kind of experiment: Bfl-1/FITC-Bid BH3 competitive fluorescence polarization assay. The format is binding. Particulars: primary HTS hits, MLSCN library (PubChem SIDs), Table 5B. As for the experimental part: A FPA was performed to determine the binding affinity of FITC-Bid BH3 peptide to Bcl-2 proteins. […] IC50 determinations were performed using GraphPad Prism software (GraphPad, Inc., San Diego, Calif.). FPA competition assays were performed using the same procedure described above, except that 100 nM of GST-Bfl-1 protein in a volume of 45 μl was incubated with 5 μl (50 μM) test compounds in DMSO per well for 30 min prior to addition of 50 μl (5 nM) FITC-Bid BH3 peptide. The final DMSO concentration was 5% when the reactions brought to fall volume of 100 μl. Fluorescence polarization was measured after 10 min. Compounds that reduced the fluorescence polarization by 50% were considered hits.
(In general: Polarisation of emitted light reports the rotation of a fluorescent probe.)

With `O=C(COC(=O)CN1C(=O)c2ccccc2C1=O)Nc1ncc(Cl)cc1Cl` [Compound 3711621], the “% Activity” value is 58.7% and the FRatio stood at 1.36.
As to `Cc1c(Cl)cnc(NC(=O)COC(=O)C(NC(=O)c2ccco2)C(C)C)c1Cl` (stereo not shown) [Compound 3711777], the “% Activity” value is recorded as 108.1% and the FRatio stood at 0.66.
Take `Cc1ccc(S(=O)(=O)NCC(=O)OCC(=O)Nc2ncc(Cl)cc2Cl)cc1` [Compound 3711819]: the “% Activity” value is 63.4% and the FRatio is 0.8.
In the same order, the values of `Cc1ccc(-n2c(SCc3cc(=O)n4ccsc4n3)nnc2-c2cccnc2)c(C)c1` [Compound 3712302] are 80.3% and 0.96.
In the same order, the values of `COc1ccccc1NCCC(=O)OCC(=O)NCc1ccco1` [Compound 3712399] are 85.2% and 0.95.
In the same order, the values of `O=C(COC(=O)c1cccs1)NCc1ccco1` [Compound 3712480] are 79.7% and 0.96.
Consider `CCS(=O)(=O)N1Cc2ccccc2CC1C(=O)N1CCN(c2cccc(C)c2C)CC1` (stereo not shown) [Compound 3712504], for which the “% Activity” value was 54.7% and the FRatio is 0.25.
With `Cc1cc(C)c(NC(=O)C2=CC3C(N=C4SC=CN43)S2)c(C)c1` (stereo not shown) [Compound 3712588], the “% Activity” value is on record as 66.1% and the FRatio came out at 1.05.
The matching figures for `Cc1ccc(OCCSc2nnc(-c3ccncc3)n2C)cc1` [Compound 3712590]: 68.9% and 0.91.
In the same order, the values of `COc1ccc(S(=O)(=O)N2CCCC2C(=O)Nc2nnc(-c3cccnc3)s2)cc1` (stereo not shown) [Compound 3713012] are 50.9% and 0.9.
The matching figures for `Cc1ccc(OCCC(=O)OCC(=O)Nc2ccc(Cl)cn2)cc1` [Compound 3713376]: 54.8% and 1.43.
On to `O=C(c1cnccn1)N1CCc2ccccc21` [Compound 3713383], for which the “% Activity” value turned out to be 80.1% and the FRatio is on record as 0.72.
The matching figures for `FC(F)(F)c1cnc(Nc2ccc(N3CCOCC3)cc2)c(Cl)c1` [Compound 3713921]: 51.4% and 0.51.
Regarding `COc1ccc(NC(=O)c2cc(CN3C(=O)c4ccccc4C3=O)ccc2OC)cn1` [Compound 3713992], the “% Activity” value stood at 66.9% and the FRatio stood at 1.47.
Consider `CC(C)CN(C(=O)COC(=O)c1cc2c(s1)CCC2)C1CCS(=O)(=O)C1` (stereo not shown) [Compound 3714271], for which the “% Activity” value is on record as 53.1% and the FRatio is 0.67.
As to `CCOc1ccc(C(=O)OCC(=O)NCc2ccco2)cc1OCC` [Compound 3714498], the “% Activity” value is listed as 71.4% and the FRatio turned out to be 1.
On to `COc1cc(CC(=O)OCC(=O)Nc2ncc(Cl)cc2Cl)cc(OC)c1OC` [Compound 3714968], for which the “% Activity” value was determined as 54% and the FRatio is reported as 1.42.
The matching figures for `CC(=N)/C(C#N)=C(/O)CSc1nnc(Nc2c(C)cccc2C)s1` [Compound 3715042]: 63.1% and 0.63.
In the same order, the values of `O=C(NCc1ccco1)c1c2c(nc3ccccc13)CCC2` [Compound 3715091] are 62.4% and 0.86.
The matching figures for `O=C(COC(=O)c1cncc(Br)c1)NCc1ccco1` [Compound 3715512]: 55.4% and 0.95.
Consider `Cn1c(C(C#N)C2=C(Cl)C(=O)N(c3ccccc3)C2=O)nc2ccccc21` (stereo not shown) [Compound 3716185], for which the “% Activity” value worked out at 89.8% and the FRatio is given as 0.68.
As for `C=CCn1c(SCc2cc(=O)n3ccsc3n2)nnc1C1CCCCC1` [Compound 3716212], the “% Activity” value was 54.8% and the FRatio is listed as 0.6.
On to `Cc1ccc(S(=O)(=O)N2CCCCC2)cc1C(=O)Nc1nc[nH]n1` [Compound 3716232], for which the “% Activity” value came out at 50.5% and the FRatio is reported as 0.86.
